This is an account of results in patent publication US20120028917A1, “Use Of N-(4-((3-(2-Amino-4-Pyrimidinyl)-2-Pyridinyl)Oxy)Phenyl)-4-(4-Methyl-2-Thienyl)-1-Phthalazinamine In The Treatment Of Antimitotic Agent Resistant Cancer” (Amgen Inc., priority 2009, published 2012).

One assay concerns MDA-MB-231-Taxol-r. Briefly: Cell cycle DNA content assay (flow cytometry). Type of assay: cell-based. Conditions: Homo sapiens, 24 h, Breast, Paclitaxel-selected, read-out: EC50 @ 24 hours, ≧4N DNA content. How it is done: (§1) MDA-MB-231(F11)-luc parent and taxol-resistant cells were seeded at a density of 250,000 cells/well in a 12-well plate in 1 mL of in the appropriate media, in duplicates. The next day cells were treated with AMG 900 or taxol over a 10-point concentration range with a final DMSO concentration of 0.1% in taxol-free media. After 24 hours, cells were harvested with 1× trypsin-EDTA and transferred to PCR tubes. Cells were centrifuged at 2000 rpm for 4 minutes and the supernatant was aspirated. Cells were fixed in 200 μL of ice cold 90% methanol and stored at −20° C. for at least 24 hours. Fixed cells were centrifuged at 2000 rpm for 4 minutes to remove 90% methanol. Cells were washed with wash buffer and stained with 200 μL of propidium iodide (PI) for 30 minutes at 4° C. in the dark. An additional 400 μL of PI was added before data acquisition. Data was acquired and analyzed by flow cytometry (LSRII). A threshold gate was applied according to +4N (same as ≧4N) DNA content based on DMSO control and low/high drug-treated groups. The data was represented as percentage of control for +4N DNA content positive populations. The +4N DNA content cellular EC50 values were assigned using 4-parameter equation. […] Flow cytometric-based cell cycle analysis was performed to measure the percentage of ≧4N DNA content or SubG1 DNA content positive cells. The dose-response curves for AMG 900 represent the drug concentration plotted against the percentage of ≧4N DNA content positive cells. The dose-response curves for taxol represent the drug concentration plotted against the percentage of SubG1 DNA content positive cells. The EC50 values were calculated by 4-parameter fit model.

The next assay concerns MDA-MB-231. Put plainly: Cell cycle DNA content assay (flow cytometry). Type of assay: cell-based. Conditions: Homo sapiens, 24 h; MDA-MB-231, Breast, Parent line; read-out: EC50 @ 24 hours, ≧4N DNA content. How it is done:
as §1

Another assay deals with NCI-H460-Taxol-r. Briefly: Cell cycle DNA content assay (flow cytometry). It counts as cell-based. Conditions: Homo sapiens, 24 h, Lung, Paclitaxel-selected, read-out: EC50 @ 24 hours, ≧4N DNA content. The protocol:
(§2) NCI-H460 parental and NCI-H460 taxol-resistant cells were seeded at a density of 500,000 cells/well in a 6-well plate in 2 mL of appropriate complete media. The next day cells were treated with AMG 900 or taxol over a 6-point concentration range with a final DMSO concentration of 0.05% in media. After 24 hours, cells were pulsed with BrdU (1:100 dilution) and harvested. Cells were centrifuged at 1600 rpm for 4 minutes and the supernatant was aspirated. Cells were washed in 1× PBS and fixed in 900 μL of ice cold 90% methanol and stored at −20° C. Fixed cells were centrifuged at 2000 rpm for 4 minutes to remove 90% methanol. Cells were washed with 200 μL of wash buffer and stained with 200 μL of propidium iodide (PI) overnight at 4° C. in the dark. Data was acquired and analyzed by flow cytomety (LSRII). A threshold gate was applied according to +4N (same as ≧4N) DNA content and SubG1 positive populations based on DMSO-treated control and low/high drug-treated groups. The data was represented as a percentage of +4N DNA and SubG1 positive subpopulations. The +4N (same as ≧4N) DNA content or SubG1 cellular EC50 values were calculated using a 4-parameter equation. Lung tumor cell lines were treated with control (DMSO), AMG 900 or taxol over a 6-point dose range for 24 hours. Flow cytometric-based cell cycle analysis was performed to measure the percentage of ≧4N DNA content or SubG1 DNA content positive cells. The dose-response curves for AMG 900 represent the drug concentration plotted against the percentage of ≧4N DNA content positive cells. The dose-response curves for taxol represent the drug concentration plotted against the percentage of SubG1 DNA content positive cells. The EC50 values were calculated by 4-parameter fit model.
For orientation: A flow cytometer gives signals particle by particle.

In the next assay the test system is NCI-H460. Briefly: Cell cycle DNA content assay (flow cytometry). It counts as cell-based. Conditions: Homo sapiens, 24 h; NCI-H460, Lung, Parent line; read-out: EC50 @ 24 hours, ≧4N DNA content. How it is done: as §2
For the next assay, the system named is HCT116 xenograft. Briefly: Xenograft tumor growth inhibition (Example 7). It counts as in vivo, mice. Conditions: HCT116, Colon; oral 15 mg/kg b.i.d. 2 consecutive days per week or 3 mg/kg b.i.d. every day, 3 weeks. How it is done:
Mice were injected subcutaneously with 2×10^6 human HCT 116 colon tumor cells. When tumors were established (approximately 200 mm^3), mice were randomized into experimental treatment groups (n=10) and treated orally with AMG 900 at 1.5, 2.25 or 3 mg/kg everyday or, 3.75, 7.5 or 15 mg/kg intermittently for the duration of the experiment. Mice were provided nutritional supplements on a daily basis. Tumor volumes and body weights were recorded twice per week using caliper and analytical digital scale, respectfully. Tumor data were represented by mean tumor volume +/−SEM. Statistical significance for tumor growth inhibition was determined by repeated measurements ANOVA (RMANOVA) followed by Scheffe post-hoc analysis.
The in-vivo effect of AMG 900 on tumor growth was further evaluated in a panel of human xenografts from five different tumor types (breast, colon, lung, pancreatic, and uterine), including three MDR xenograft models. Mice bearing established tumors were orally administered AMG 900 at 15 mg/kg b.i.d. for 2 consecutive days per week for 3 weeks or at 3 mg/kg b.i.d. every day for 3 weeks. The maximum percentage of tumor growth inhibition (TGI) is reported, in Table 7 below, for each xenograft model. The percentage of TGI was calculated as the difference between the change in vehicle-treated control and AMG 900-treated tumor volumes during the study period.

Marks after values point to notes of the source that are not given here.

For the molecule `Cc1csc(-c2nnc(Nc3ccc(Oc4ncccc4-c4ccnc(N)n4)cc3)c3ccccc23)c1` [AMG 900, N-(4-((3-(2-amino-4-pyrimidinyl)-2-pyridinyl)oxy)phenyl)-4-(4-methyl-2-thienyl)-1-phthalazinamine], the EC50 in the assay on MDA-MB-231-Taxol-r, in the assay on MDA-MB-231, in the assay with NCI-H460-Taxol-r and in the assay with NCI-H460 was 1 nM in each case. The “Maximum TGI (%)” value in the assay with HCT116 xenograft was 85** %.

By EC50 is commonly meant the concentration needed to bring the measured effect to its halfway point.
